In patent publication US20080293699A1, “Inhibitors of thapsigargin-induced cell death” (priority 2007, published 2008):

Experiments:
Assay type in all cases: biochemical
Ire1 = Ire1 (Homo sapiens, UniProt O75460); assay: Ire1 autophosphorylation in vitro kinase assay; conditions: 32P-γ-ATP, up to 50 μM
Procedure: (§1) Suppression of thapsigargin-induced phosphorylation of p38MAPK was also measured by a quantitative ELISA-methods, with IC50 for p38MAPK phosphorylation estimated at <5 μM. In contrast, thapsigargin-induced expression of CHOP, expression of ATF4, proteolytic processing of ATF6, phosphorylation of eIF2a (Ser 51), auto-phosphorylation of Ire1a or auto-phosphorylation of ASK1 were not inhibited directly by CID-2878746 at concentrations up to 50 μM tested by in vitro kinase assay using p32-γ-ATP substrate. […] Thapsigargin-induced reductions in phosphorylation of ASK1 at the serine 967 site in ASK1 transfected 293T cells are inhibited by compound 5962123 at concentrations of 50-100 μM, as determined by immunoblotting using anti-phospho-specific (ser 967) antibody, but thapsigargin-induced changes in phosphorylation of ASK1 at ser 83 and thr 845 are not modulated by compound 5962123 at concentrations as high as 100 μM in ASK1-transfected HEK293T cells.
(§2) C-Jun and p38 MAPK work downstream of the Ire1 pathway (see FIG. 21), we tested whether one of our hit compounds (6239507) inhibits autophosphorylation of any of kinases in this Ire1-ASK1-JNK/p38 MAPK pathway. […] An Ire1 autophosphorylation assay was performed. […] Incorporation values of ^32P-γ-ATP were evaluated by a scintillation counter. […] Incorporation values of ^32P-γ-ATP were evaluated by a scintillation counter. […]

ASK1 [1] = biological target: T1, ASK1 (Homo sapiens, UniProt Q99683); assay: ASK1-MKK6-p38 coupled in vitro kinase assay
T1 construct: expressed in transfected cells; host or cells: HEK293T
T1 sequence (Q99683 1-1374): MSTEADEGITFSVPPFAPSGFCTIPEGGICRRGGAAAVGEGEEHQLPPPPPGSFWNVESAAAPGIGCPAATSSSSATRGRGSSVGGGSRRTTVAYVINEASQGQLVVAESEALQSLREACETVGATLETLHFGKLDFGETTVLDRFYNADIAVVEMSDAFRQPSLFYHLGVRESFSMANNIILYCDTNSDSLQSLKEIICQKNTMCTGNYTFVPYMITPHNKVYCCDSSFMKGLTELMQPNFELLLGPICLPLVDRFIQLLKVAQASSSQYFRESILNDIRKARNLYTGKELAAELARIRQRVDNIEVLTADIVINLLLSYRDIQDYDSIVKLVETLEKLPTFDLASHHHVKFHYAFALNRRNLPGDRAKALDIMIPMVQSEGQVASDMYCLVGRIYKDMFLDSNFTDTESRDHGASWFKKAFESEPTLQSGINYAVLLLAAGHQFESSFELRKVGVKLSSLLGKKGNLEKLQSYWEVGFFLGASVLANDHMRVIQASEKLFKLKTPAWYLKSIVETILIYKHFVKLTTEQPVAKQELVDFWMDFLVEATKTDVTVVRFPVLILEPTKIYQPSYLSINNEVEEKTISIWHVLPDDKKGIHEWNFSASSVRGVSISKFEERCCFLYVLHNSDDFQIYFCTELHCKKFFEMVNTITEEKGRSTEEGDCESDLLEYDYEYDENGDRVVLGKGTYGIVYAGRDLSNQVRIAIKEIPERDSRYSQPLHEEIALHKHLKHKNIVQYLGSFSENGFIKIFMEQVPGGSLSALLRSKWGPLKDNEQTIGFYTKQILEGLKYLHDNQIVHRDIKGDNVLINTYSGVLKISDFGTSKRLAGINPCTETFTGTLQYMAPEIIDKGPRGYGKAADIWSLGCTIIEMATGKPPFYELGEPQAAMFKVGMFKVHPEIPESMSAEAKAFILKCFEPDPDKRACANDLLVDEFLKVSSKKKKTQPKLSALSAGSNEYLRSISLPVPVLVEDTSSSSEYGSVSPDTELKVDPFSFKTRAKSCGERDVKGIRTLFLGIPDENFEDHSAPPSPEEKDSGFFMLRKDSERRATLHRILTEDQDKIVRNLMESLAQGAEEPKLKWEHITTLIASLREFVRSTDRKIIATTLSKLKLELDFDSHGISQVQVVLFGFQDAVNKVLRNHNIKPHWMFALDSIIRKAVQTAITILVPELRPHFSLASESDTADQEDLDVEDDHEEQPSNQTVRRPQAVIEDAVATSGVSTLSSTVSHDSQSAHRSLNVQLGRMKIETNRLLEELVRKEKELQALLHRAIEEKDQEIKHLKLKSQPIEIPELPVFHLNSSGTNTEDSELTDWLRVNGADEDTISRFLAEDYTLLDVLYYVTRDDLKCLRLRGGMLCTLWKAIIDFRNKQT
Procedure: as §1, §2

ASK1 [2] = biological target: T1, ASK1; assay: ASK1 autophosphorylation in vitro kinase assay; conditions: up to 50 μM, listed as CID-2878746
Procedure: as §1

Ire1, sequence (O75460 19-977, species assumed): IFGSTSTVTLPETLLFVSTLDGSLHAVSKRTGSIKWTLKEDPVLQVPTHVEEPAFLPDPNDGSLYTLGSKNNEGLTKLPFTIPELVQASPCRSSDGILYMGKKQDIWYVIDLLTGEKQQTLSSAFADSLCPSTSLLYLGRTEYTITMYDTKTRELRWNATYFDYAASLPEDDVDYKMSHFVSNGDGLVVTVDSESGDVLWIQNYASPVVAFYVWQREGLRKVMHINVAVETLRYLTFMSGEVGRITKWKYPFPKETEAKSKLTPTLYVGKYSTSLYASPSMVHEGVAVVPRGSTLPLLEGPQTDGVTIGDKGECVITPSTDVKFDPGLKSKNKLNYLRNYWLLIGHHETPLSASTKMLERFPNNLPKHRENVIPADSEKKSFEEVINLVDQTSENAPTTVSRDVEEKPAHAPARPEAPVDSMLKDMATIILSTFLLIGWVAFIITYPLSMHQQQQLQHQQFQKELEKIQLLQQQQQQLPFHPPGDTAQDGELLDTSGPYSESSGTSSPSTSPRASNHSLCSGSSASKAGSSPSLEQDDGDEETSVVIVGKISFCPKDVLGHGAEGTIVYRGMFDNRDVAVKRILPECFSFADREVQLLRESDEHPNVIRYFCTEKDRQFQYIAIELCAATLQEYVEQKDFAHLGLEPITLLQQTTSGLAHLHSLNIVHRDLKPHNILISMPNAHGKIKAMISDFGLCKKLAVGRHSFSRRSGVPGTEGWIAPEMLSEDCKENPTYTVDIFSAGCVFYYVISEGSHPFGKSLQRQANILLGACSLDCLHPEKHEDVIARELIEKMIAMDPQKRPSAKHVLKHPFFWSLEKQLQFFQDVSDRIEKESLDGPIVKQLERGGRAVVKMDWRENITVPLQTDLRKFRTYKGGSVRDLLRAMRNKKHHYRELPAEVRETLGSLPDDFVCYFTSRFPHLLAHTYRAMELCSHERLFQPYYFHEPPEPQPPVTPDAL

| SMILES | Ire1 auto-phosphorylation (Ire1) | Ask1's activity with respect to downstream kinases MKK6 and p38 MAPK (ASK1 [1]; kinases incubated with 50 μM compound in vitro) | Ire1 auto-phosphorylation (Ire1; listed as CID-2878746) | ASK1 autophosphorylation (ASK1 [2]) | Thapsigargin-induced activation of ASK1 in cells (ASK1 [1]; coupled assay with MKK6 and p38MAPK, ASK1 immunoprecipitated from compound-treated (100 μM) HEK293T cells) |
| --- | --- | --- | --- | --- | --- |
| COc1ccc(C2CC(=O)C3=C(C2)Nc2ccccc2NC3c2cccc(Oc3ccccc3)c2)cc1OC (centres unmarked) [Compound 6239507] | does not modulate | does not modulate |  |  |  |
| CCN(CC)c1ccc(C2Nc3ccccc3NC3=C2C(=O)CC(c2ccccc2)C3)cc1 (centres unmarked) [Compound 5962123, 6-(4-diethylaminophenyl)-9-phenyl-5,6,8,9,10,11-hexahydrobenzo[c][1,5]benzodiazepin-7-one] |  |  | not inhibited | not inhibited | failed to inhibit |
